Each structure is given as a SMILES string. Where only a bound is given, the exact number is not on record here.

Consider 36 compounds from patent US7256190B2, “Thiazole compounds useful as inhibitors of protein kinase” (Vertex Pharmaceuticals Incorporated, priority 2001, dated 2007).

Type in all cases: biochemical
The target in assay [1] is GSK3-β (AA 1-420) (Homo sapiens, UniProt P49841). The assay can be described thus: GSK-3 inhibition assay (coupled enzyme system). The conditions noted are these: 10 μM ATP, 300 μM peptide, 60 nM GSK-3β, 30° C. Here is the method: Compounds were screened for their ability to inhibit GSK3-β (AA 1-420) activity using a standard coupled enzyme system (Fox et al. (1998) Protein Sci. 7, 2249). Reactions were carried out in a solution containing 100 mM HEPES (pH 7.5), 10 mM MgCl2, 25 mM NaCl, 300 μM NADH, 1 mM DTT and 1.5% DMSO. Final substrate concentrations in the assay were 10 μM ATP (Sigma Chemicals, St Louis, Mo.) and 300 μM peptide (HSSPHQS(PO3H2)EDEEE, American Peptide, Sunnyvale, Calif.). Reactions were carried out at 30° C. and 60 nM GSK-3β. Final concentrations of the components of the coupled enzyme system were 2.5 mM phosphoenolpyruvate, 300μM NADH, 30 μg/ml pyruvate kinase and 10 μg/ml lactate dehydrogenase.
An assay stock buffer solution was prepared containing all of the reagents listed above with the exception of ATP and the test compound of interest. 59 μl of the test reaction was placed in a 96 well ½-diameter plate (Corning, Corning, N.Y.) then treated with 1 μl of a 2 mM DMSO stock containing the test compound (final compound concentration 30 μM). The plate was incubated for ˜10 minutes at 30° C. then the reaction initiated by addition of 7 μl of ATP (final concentration 10 μM). Rates of reaction were obtained using a Molecular Devices Spectramax plate reader (Sunnyvale, Calif.) over a 5 minute read time at 30° C.
(§1) The compound numbers correspond to the compound numbers in Table 1.

Assay [2] has as its target T1, Aurora2 (Homo sapiens, UniProt O14965).
T1 sequence (O14965 1-403): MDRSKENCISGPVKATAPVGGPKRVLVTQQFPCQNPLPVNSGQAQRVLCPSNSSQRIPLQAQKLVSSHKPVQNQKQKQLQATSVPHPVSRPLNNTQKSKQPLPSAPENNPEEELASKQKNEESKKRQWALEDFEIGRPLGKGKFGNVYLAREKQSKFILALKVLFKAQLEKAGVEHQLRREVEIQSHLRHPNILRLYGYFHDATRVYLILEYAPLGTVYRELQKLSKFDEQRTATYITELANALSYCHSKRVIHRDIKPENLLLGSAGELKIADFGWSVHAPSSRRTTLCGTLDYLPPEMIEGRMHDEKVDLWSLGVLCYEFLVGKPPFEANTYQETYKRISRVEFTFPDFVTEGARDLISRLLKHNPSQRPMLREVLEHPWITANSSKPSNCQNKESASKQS
Kind of assay: Aurora2 inhibition assay (coupled enzyme assay). The conditions noted are these: 800 μM peptide LRRASLG, 70 nM Aurora2, 30° C. Here is the method: Compounds are screened in the following manner for their ability to inhibit Aurora2 using a standard coupled enzyme assay (Fox et al (1998). Protein Sci 7, 2246). To an assay stock buffer solution containing 0.1M HEPES 7.5, 10 mM MgCl2, 1 mM DTT, 25 mM NaCl, 2.5 mM prosphoenolpyruvate, […], […] pyruvate kinase, […] lactate dehydrogenase, […], and 800 μM peptide (LRRASLG, American Peptide, Sunnyvale, Calif.) is added a DMSO solution of a compound of the present invention to a final concentration of 30 μM. The resulting mixture is incubated at 30° C. for 10 minutes. The reaction was initiated by the addition of 10 μL of Aurora2 stock solution to give a final concentration of 70 nM in the assay. The rates of reaction are obtained by monitoring absorbance at 340 nm over a 5 minute read time at 30° C. using a BioRad Ultramark plate reader (Hercules, Calif.). The IC50 values are determined from the rate data as a function of inhibitor concentration.
as §1

The target in assay [3] is Syk (Homo sapiens, UniProt P43405). Kind of assay: Syk inhibition assay (coupled enzyme assay). To be noted: 200 μM ATP, 4 μM poly Gly-Tyr peptide, 30° C. Here is the method:
Reactions were carried out in 100 mM HEPES pH 7.5, 10 mM MgCl2, 25 mM NaCl, 1 mM DTT and 1.5% DMSO. Final substrate .concentrations in the assay were 200 μM ATP (Sigmachemical Co.) and 4 μM poly Gly-Tyr peptide (Sigma Chemical Co.). Assays were carried out at 30° C. and 200 nM Syk. Final concentrations of the components of the coupled enzyme system were 2.5 mM phosphoenolpyruvate, 300 μM NADH, 30 μg/ml pyruvate kinase and 10 μg/ml lactate dehydrogenase.
An assay stock buffer solution was prepared containing all of the reagents listed above, with the exception of Syk, DTT and the test compound of interest. 56 μl of the test reaction was placed in a 96 well plate followed by the addition of 1 μl of 2 mM DMSO stock containing the test compound (final compound concentration 30 μM). […] Rates of reaction were obtained using a BioRad Ultramark plate reader (Hercules, Calif.) over a 5 minute read time at 30° C.
as §1

GSK3-β (AA 1-420), sequence (P49841 whole entry, the tested form may be a part): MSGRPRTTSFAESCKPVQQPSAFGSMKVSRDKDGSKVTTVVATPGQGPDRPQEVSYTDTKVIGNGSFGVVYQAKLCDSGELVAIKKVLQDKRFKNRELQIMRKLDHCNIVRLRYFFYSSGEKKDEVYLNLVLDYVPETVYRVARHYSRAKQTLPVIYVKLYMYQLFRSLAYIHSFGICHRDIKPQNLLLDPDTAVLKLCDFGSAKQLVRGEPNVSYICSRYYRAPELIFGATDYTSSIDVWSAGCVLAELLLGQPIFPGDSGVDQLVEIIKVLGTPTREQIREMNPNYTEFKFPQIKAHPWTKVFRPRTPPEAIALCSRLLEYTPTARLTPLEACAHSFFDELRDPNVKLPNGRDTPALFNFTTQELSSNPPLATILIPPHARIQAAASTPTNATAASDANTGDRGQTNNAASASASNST

As for `Clc1ccc(Nc2nccc(-c3nccs3)n2)cc1` [Compound I-46], the Ki (in general, a measure of affinity in units of concentration, obtained from inhibition or displacement) in assay [1] is under 100 nM. Also, the IC50 in assay [2] and in assay [3] was over 2000 nM each time.

In the case of `c1cc(Nc2nccc(-c3nccs3)n2)cc(OCC2CCCCC2)c1` [Compound I-76], in assay [1], the Ki is under 100 nM. In addition, the half-maximal inhibitory concentration (IC50) in assay [2] and in assay [3] was over 2000 nM in each case.

As to `c1ccc(Oc2cccc(Nc3nccc(-c4nccs4)n3)c2)nc1` [Compound I-53], the concentration for half-maximal inhibition (IC50) (usually the concentration that gives 50% inhibition) in assay [3] lay within 500 to 2000 nM.

In turn, `Brc1cccc(Nc2nccc(-c3nccs3)n2)c1` [Compound I-34] returned a Ki in assay [1] of under 100 nM. Besides, the IC50 in assay [2] and in assay [3] was under 500 nM each time.

Regarding `O=[N+]([O-])c1ccccc1COc1cccc(Nc2nccc(-c3nccs3)n2)c1` [Compound I-35], the inhibition constant Ki in assay [1] is under 100 nM. Moreover, the IC50 in assay [2] and in assay [3] was over 2000 nM in each case.

Regarding `c1cncc(COc2cccc(Nc3nccc(-c4nccs4)n3)c2)c1` [Compound I-23], in assay [1], the inhibition constant Ki was under 100 nM. In addition, the IC50 in assay [2] and in assay [3] was under 500 nM each time.

For `c1cc(Nc2nccc(-c3nccs3)n2)cc(OCc2ccncc2)c1` [Compound I-8], in assay [1], the Ki is under 100 nM. Also, the figures for the 50% inhibitory concentration (IC50) in assay [2] and in assay [3] were under 500 nM and over 2000 nM, respectively.

Turning to `FC(F)(F)c1cccc(COc2cccc(Nc3nccc(-c4nccs4)n3)c2)c1` [Compound I-106], in assay [1], the Ki is under 100 nM. Also, the IC50 in assay [2] and in assay [3] was over 2000 nM each time.

With `COc1cccc(Nc2nccc(-c3nccs3)n2)c1` [Compound I-25], in assay [1], the inhibition constant Ki is under 100 nM. Further, the IC50 in assay [2] is 500 to 2000 nM; in assay [3], under 500 nM.

In the case of `Fc1ccc(Nc2nccc(-c3nccs3)n2)cc1` [Compound I-43], the inhibition constant Ki in assay [1] is under 100 nM. Further, the IC50 in assay [2] and in assay [3] was over 2000 nM in each case.

`Clc1cccc(COc2cccc(Nc3nccc(-c4nccs4)n3)c2)c1Cl` [Compound I-112] came in with an inhibitory constant (Ki) in assay [1] of under 100 nM. Besides, the IC50 in assay [2] and in assay [3] was over 2000 nM in each case.

In turn, `Fc1ccc(COc2cccc(Nc3nccc(-c4nccs4)n3)c2)cc1` [Compound I-109] yielded a Ki in assay [1] of under 100 nM. The IC50 in assay [2] and in assay [3] was over 2000 nM each time.

For `O=[N+]([O-])c1cccc(Oc2cccc(Nc3nccc(-c4nccs4)n3)c2)c1` [Compound I-59], the IC50 in assay [2] and in assay [3] was over 2000 nM in each case.

Compound `c1cc(Nc2nccc(-c3nccs3)n2)cc(OCCn2cccc2)c1` [Compound I-29] yielded a Ki in assay [1] of under 100 nM. Moreover, the IC50 in assay [2] and in assay [3] was under 500 nM throughout.

With `FC(F)(F)c1ccccc1COc1cccc(Nc2nccc(-c3nccs3)n2)c1` [Compound I-47], the Ki in assay [1] was under 100 nM. In assay [3], this compound had a half-maximal inhibitory concentration (IC50) of over 2000 nM.

For the compound `Fc1cccc(F)c1COc1cccc(Nc2nccc(-c3nccs3)n2)c1` [Compound I-94], the inhibition constant Ki in assay [1] was under 100 nM. The half-inhibitory concentration (IC50) in assay [2] and in assay [3] was under 500 nM in each case.

In turn, `Clc1ccccc1COc1cccc(Nc2nccc(-c3nccs3)n2)c1` [Compound I-88] came in with an inhibition constant (Ki) in assay [1] of under 100 nM. Moreover, the IC50 in assay [2] was 500 to 2000 nM; in assay [3], over 2000 nM.

For the compound `Fc1ccc(Nc2nccc(-c3nccs3)n2)cc1F` [Compound I-49], in assay [1], the inhibitory constant (Ki) was under 100 nM. The 50% inhibitory concentration (IC50) in assay [2] was 500 to 2000 nM; in assay [3] it was over 2000 nM.

The compound `Clc1ccc(COc2cccc(Nc3nccc(-c4nccs4)n3)c2)cc1Cl` [Compound I-2] gave an inhibitory constant (Ki) in assay [1] of over 1000 nM. The IC50 in assay [2] and in assay [3] was over 2000 nM each time.

In assay [1], `c1ccc(Oc2cccc(Nc3nccc(-c4nccs4)n3)c2)cc1` [Compound I-4] yielded a Ki of under 100 nM. For the same compound, the IC50 in assay [2] and in assay [3] was 500 to 2000 nM throughout.

`Fc1cc(Nc2nccc(-c3nccs3)n2)cc(F)c1F` [Compound I-58] yielded an inhibition constant (Ki) in assay [1] of under 100 nM. Further, the IC50 in assay [2] and in assay [3] was over 2000 nM in each case.

Turning to `COC(=O)c1ccc(COc2cccc(Nc3nccc(-c4nccs4)n3)c2)cc1` [Compound I-82], the Ki in assay [1] was under 100 nM. Further, the IC50 in assay [2] and in assay [3] was over 2000 nM each time.

For the compound `Fc1cccc(F)c1Nc1nccc(-c2nccs2)n1` [Compound I-64], the Ki in assay [1] was over 1000 nM. In addition, the concentration for half-maximal inhibition (IC50) in assay [2] and in assay [3] was over 2000 nM throughout.

Compound `Cc1ccccc1COc1cccc(Nc2nccc(-c3nccs3)n2)c1` [Compound I-115] registered a Ki in assay [1] of under 100 nM. Besides, the IC50 in assay [3] was over 2000 nM.

Compound `c1cc(Nc2nccc(-c3nccs3)n2)cc(OCc2ccc3c(c2)OCO3)c1` [Compound I-17] returned a Ki in assay [1] of under 100 nM. Moreover, the half-inhibitory concentration (IC50) in assay [2] and in assay [3] was under 500 nM in each case.

`Oc1cccc(Nc2nccc(-c3nccs3)n2)c1` [Compound I-11] came in with an inhibition constant Ki in assay [1] of under 100 nM. The IC50 in assay [2] and in assay [3] was under 500 nM throughout.

In assay [1], `Clc1cccc(Cl)c1Nc1nccc(-c2nccs2)n1` [Compound I-61] showed a Ki of over 1000 nM. Moreover, the half-inhibitory concentration (IC50) in assay [2] and in assay [3] was over 2000 nM throughout.

Consider `Fc1cccc(Nc2nccc(-c3nccs3)n2)c1` [Compound I-19], for which the inhibitory constant (Ki) in assay [1] is under 100 nM. Also, the IC50 in assay [2] and in assay [3] was 500 to 2000 nM each time.

`Ic1cccc(Nc2nccc(-c3nccs3)n2)c1` [Compound I-31] had a Ki in assay [1] of under 100 nM. Further, the IC50 in assay [2] and in assay [3] was under 500 nM each time.

As to `Clc1cccc(Nc2nccc(-c3nccs3)n2)c1` [Compound I-22], the Ki in assay [1] was under 100 nM. Also, the half-maximal inhibitory concentration (IC50) in assay [2] and in assay [3] was under 500 nM each time.

Turning to `c1ccc(COc2cccc(Nc3nccc(-c4nccs4)n3)c2)cc1` [Compound I-7, (3-Benzyloxy-phenyl)-(4-thiazol-2-yl-pyrimidin-2-yl)-amine], the IC50 is over 2000 nM in assay [2] and under 500 nM in assay [3].

On to `COc1ccccc1COc1cccc(Nc2nccc(-c3nccs3)n2)c1` [Compound I-44], for which the Ki in assay [1] was under 100 nM. In addition, the IC50 in assay [3] was under 500 nM.

As for `Nc1ccccc1COc1cccc(Nc2nccc(-c3nccs3)n2)c1` [Compound I-38], in assay [1], the inhibition constant Ki is under 100 nM. Also, the half-maximal inhibitory concentration (IC50) in assay [2] and in assay [3] was under 500 nM in each case.

As to `Nc1cccc(Oc2cccc(Nc3nccc(-c4nccs4)n3)c2)c1` [Compound I-62], the IC50 in assay [2] is 500 to 2000 nM; in assay [3] it was under 500 nM.

In the case of `c1cc(Nc2nccc(-c3nccs3)n2)cc(Oc2ccncc2)c1` [Compound I-56], the IC50 in assay [2] and in assay [3] was 500 to 2000 nM throughout.

`c1cncc(Oc2cccc(Nc3nccc(-c4nccs4)n3)c2)c1` [Compound I-50]: the half-inhibitory concentration (IC50) in assay [2] was 500 to 2000 nM; in assay [3] it was under 500 nM.
